Laboratory results taken from US9302999B2, “Substituted triazoles as herbicides” (E. I. DU PONT DE NEMOURS AND COMPANY, priority 2012, dated 2016).

Legend:
Assay type in all cases: in vivo
[1] = tested on: nightshade (eastern black nightshade, Solanum ptycanthum); assay: Test E pre-/postemergence: nightshade; settings: Preemergence, scale 0 to 100
Description: (§1) Seeds of plant species selected from corn (Zea mays), soybean (Glycine max), velvetleaf (Abutilon theophrasti), lambsquarters (Chenopodium album), poinsettia, wild (wild poinsettia, Euphorbia heterophylla), pigweed, palmer (palmer pigweed, Amaranthus palmeri), waterhemp (common waterhemp, Amaranthus rudis), smartweed (ladysthumb smartweed, Polygonum persicaria), surinam grass (Brachiaria decumbens), crabgrass, large (large crabgrass, Digitaria sanguinalis), crabgrass, Brazil (Brazilian crabgrass, Digitaria horizontalis), panicum, fall (fall panicum, Panicum dichotomiflorum), foxtail, giant (giant foxtail, Setaria faberii), foxtail, green (green foxtail, Setaria viridis), goosegrass (Eleusine indica), johnsongrass (Sorghum halepense), ragweed (common ragweed, Ambrosia elation), barnyardgrass (Echinochloa crus-galli), sandbur (southern sandbur, Cenchrus echinatus), arrowleaf sida (Sida rhombifolia), ryegrass, Italian (Italian ryegrass, Lolium multiflorum), dayflower, (VA) (Virginia dayflower, Commelina virginica), field bindweed (Convolvulus arvensis), cocklebur (common cocklebur, Xanthium strumarium), morningglory (Ipomoea coccinea), nightshade (eastern black nightshade, Solanum ptycanthum), kochia (Kochia scoparia), nutsedge, yellow (yellow nutsedge, Cyperus esculentus) and beggarticks (hairy beggarticks, Bidens pilosa) were planted into a silt loam soil and treated preemergence with test chemicals formulated in a non-phytotoxic solvent mixture which included a surfactant. At the same time, plants selected from these crop and weed species were planted in pots containing a growing medium comprising spaghnum peat moss, vermiculite, wetting agent and starter nutrients and treated with postemergence applications of some of the test chemicals formulated in the same manner. Plants ranged in height from 2 to 18 cm for postemergence treatments (1- to 4-leaf stage).
(§2) Treated plants and controls were maintained in a greenhouse for 14 to 21 days, after which time all species were compared to controls and visually evaluated. Plant response ratings, summarized in Table E, are based on a scale of 0 to 100 where 0 is no effect and 100 is complete control. A dash (-) response means no test result.

[2] = tested on: field bindweed (Convolvulus arvensis); assay: Test E pre-/postemergence: field bindweed; settings: Preemergence, scale 0 to 100
Description: as §1, §2

[3] = tested on: foxtail, giant (giant foxtail, Setaria faberii); assay: Test E pre-/postemergence: foxtail, giant; settings: Preemergence, scale 0 to 100
Description: as §1, §2

[4] = tested on: crabgrass, large (large crabgrass, Digitaria sanguinalis); assay: Test E pre-/postemergence: crabgrass, large; settings: Preemergence, scale 0 to 100
Description: as §1, §2

soybean (Glycine max) = assay: Test E pre-/postemergence: soybean; settings: Preemergence, scale 0 to 100
Description: as §1, §2

[5] = tested on: sandbur (southern sandbur, Cenchrus echinatus); assay: Test E pre-/postemergence: sandbur; settings: Preemergence, scale 0 to 100
Description: as §1, §2

corn (Zea mays) = assay: Test E pre-/postemergence: corn; settings: Preemergence, scale 0 to 100
Description: as §1, §2

[6] = tested on: nutsedge, yellow (yellow nutsedge, Cyperus esculentus); assay: Test E pre-/postemergence: nutsedge, yellow; settings: Preemergence, scale 0 to 100
Description: as §1, §2

[7] = tested on: velvetleaf (Abutilon theophrasti); assay: Test E pre-/postemergence: velvetleaf; settings: Preemergence, scale 0 to 100
Description: as §1, §2

[8] = tested on: chickweed (common chickweed, Stellaria media); assay: Test D pre-/postemergence: chickweed
Description: Seeds of plant species selected from bluegrass (annual bluegrass, Poa annua), blackgrass (Alopecurus myosuroides), canarygrass (Phalaris minor), chickweed (common chickweed, Stellaria media), galium (catchweed bedstraw, Galium aparine), bromegrass, downy (downy bromegrass, Bromus tectorum), field poppy (Papaver rhoeas), field violet (Viola arvensis), foxtail, green (green foxtail, Setaria viridis), deadnettle (henbit deadnettle, Lamium amplexicaule), ryegrass, Italian (Italian ryegrass, Lolium multiflorum), kochia (Kochia scoparia), lambsquarters (Chenopodium album), oilseed rape (Brassica napus), pigweed (Amaranthus retroflexus), Russian thistle (Salsola iberica), chamomile (scentless chamomile, Matricaria inodora), speedwell (bird's-eye speedwell, Veronica persica), barley, spring (spring barley, Hordeum vulgare), wheat, spring (spring wheat, Triticum aestivum), buckwheat, wild (wild buckwheat, Polygonum convolvulus), mustard, wild (wild mustard, Sinapis arvensis), oat, wild (wild oat, Avena fatua), radish, wild (wild radish, Raphanus raphanistrum), windgrass (Apera spica-venti), barley, winter (winter barley, Hordeum vulgare), and wheat, winter (winter wheat, Triticum aestivum) were planted into a silt loam soil and treated preemergence with test chemicals formulated in a non-phytotoxic solvent mixture which included a surfactant. At the same time, these same crop and weed species were planted in pots containing the planting medium comprising spaghnum peat moss, vermiculite, wetting agent and starter nutrients and treated with postemergence applications of the test chemicals formulated in the same manner. Plants ranged in height from 2 to 18 cm (1- to 4-leaf stage).
Treated plants and controls were maintained in a controlled growth environment for 14 to 21 days after which time all species were compared to controls and visually evaluated. Plant response ratings, summarized in Table D, are based on a scale of 0 to 100 where 0 is no effect and 100 is complete control. A dash (-) response means no test result.

[9] = Postemergence, 31 g ai/ha, scale 0 to 100 (0 no effect, 100 complete control)
[10] = Postemergence, 62 g ai/ha, scale 0 to 100 (0 no effect, 100 complete control)
[11] = Postemergence, 125 g ai/ha, scale 0 to 100, 0 no effect, 100 complete control
[12] = Postemergence, 250 g ai/ha, scale 0 to 100 (0 no effect, 100 complete control)
[13] = Postemergence, 16 g ai/ha, scale 0 to 100
[14] = Preemergence, 31 g ai/ha, scale 0 to 100, 0 no effect, 100 complete control
[15] = Preemergence, 62 g ai/ha, scale 0 to 100
[16] = Preemergence, 125 g ai/ha, scale 0 to 100
[17] = Preemergence, 16 g ai/ha, scale 0 to 100, 0 no effect, 100 complete control

Cc1nn(-c2ccc(C(F)(F)F)cn2)nc1Oc1ccnc(C(F)(F)F)c1 [Compound 23]
Plant response rating: Nightshade ([1]; 16 g ai/ha): 0 | Plant response rating: Nightshade ([1]; 31 g ai/ha): 0 | Plant response rating: Nightshade ([1]; 62 g ai/ha): 0 | Plant response rating: Nightshade ([1]; 125 g ai/ha): 95 | Plant response rating: Nightshade ([1]; 250 g ai/ha): 98 | Plant response rating: Field Bindweed ([2]; 16 g ai/ha): 0 | Plant response rating: Field Bindweed ([2]; 31 g ai/ha): 0 | Plant response rating: Field Bindweed ([2]; 62 g ai/ha): 0 | Plant response rating: Field Bindweed ([2]; 125 g ai/ha): 0 | Plant response rating: Field Bindweed ([2]; 250 g ai/ha): 70 | Plant response rating: Foxtail, Giant ([3]; 16 g ai/ha): 0 | Plant response rating: Foxtail, Giant ([3]; 31 g ai/ha): 5 | Plant response rating: Foxtail, Giant ([3]; 62 g ai/ha): 5 | Plant response rating: Foxtail, Giant ([3]; 125 g ai/ha): 100 | Plant response rating: Foxtail, Giant ([3]; 250 g ai/ha): 100 | Plant response rating: Crabgrass, Large ([4]; 16 g ai/ha): 5 | Plant response rating: Crabgrass, Large ([4]; 31 g ai/ha): 5 | Plant response rating: Crabgrass, Large ([4]; 62 g ai/ha): 35 | Plant response rating: Crabgrass, Large ([4]; 125 g ai/ha): 70 | Plant response rating: Crabgrass, Large ([4]; 250 g ai/ha): 100 | Plant response rating: Soybean (soybean (Glycine max); 16 g ai/ha): 0 | Plant response rating: Soybean (soybean (Glycine max); 31 g ai/ha): 0 | Plant response rating: Soybean (soybean (Glycine max); 62 g ai/ha): 0 | Plant response rating: Soybean (soybean (Glycine max); 125 g ai/ha): 0 | Plant response rating: Soybean (soybean (Glycine max); 250 g ai/ha): 20 | Plant response rating: Sandbur ([5]; 16 g ai/ha): 0 | Plant response rating: Sandbur ([5]; 31 g ai/ha): 0 | Plant response rating: Sandbur ([5]; 62 g ai/ha): 0 | Plant response rating: Sandbur ([5]; 125 g ai/ha): 25 | Plant response rating: Sandbur ([5]; 250 g ai/ha): 65 | Plant response rating: Corn (corn (Zea mays); 16 g ai/ha): 0 | Plant response rating: Corn (corn (Zea mays); 31 g ai/ha): 0 | Plant response rating: Corn (corn (Zea mays); 62 g ai/ha): 0 | Plant response rating: Corn (corn (Zea mays); 125 g ai/ha): 0 | Plant response rating: Corn (corn (Zea mays); 250 g ai/ha): 20 | Plant response rating: Nutsedge, Yellow ([6]; 16 g ai/ha): 0 | Plant response rating: Nutsedge, Yellow ([6]; 31 g ai/ha): 0 | Plant response rating: Nutsedge, Yellow ([6]; 62 g ai/ha): 0 | Plant response rating: Nutsedge, Yellow ([6]; 125 g ai/ha): 15 | Plant response rating: Nutsedge, Yellow ([6]; 250 g ai/ha): 15 | Plant response rating: Velvetleaf ([7]; 16 g ai/ha): 0 | Plant response rating: Velvetleaf ([7]; 31 g ai/ha): 0 | Plant response rating: Velvetleaf ([7]; 62 g ai/ha): 10 | Plant response rating: Velvetleaf ([7]; 125 g ai/ha): 65 | Plant response rating: Velvetleaf ([7]; 250 g ai/ha): 65 | Plant response rating: Chickweed [8, 9]: 10 | Plant response rating: Chickweed [8, 10]: 15 | Plant response rating: Chickweed [8, 11]: 30 | Plant response rating: Chickweed [8, 12]: 90 | Plant response rating, Chickweed [8, 13]: 5

Cc1nn(-c2ccc(C(F)(F)F)cn2)nc1Cc1cccc(C(F)(F)F)c1 [Compound 106]
Plant response rating: Chickweed [8, 9]: 90 | Plant response rating: Chickweed [8, 10]: 90 | Plant response rating: Chickweed [8, 11]: 90 | Plant response rating: Chickweed [8, 12]: 90 | Plant response rating, Chickweed [8, 13]: 20 | Plant response rating, Chickweed [8, 14]: 100 | Plant response rating, Chickweed [8, 15]: 100 | Plant response rating, Chickweed [8, 16]: 100 | Plant response rating, Chickweed ([8]; Preemergence, 250 g ai/ha, scale 0 to 100): 100

COc1nn(-c2ccc(C(F)(F)F)cc2)nc1Cc1ccnc(C(F)F)c1 [Compound 138]
Plant response rating: Chickweed [8, 9]: 60 | Plant response rating: Chickweed [8, 10]: 85 | Plant response rating: Chickweed [8, 11]: 95 | Plant response rating: Chickweed [8, 12]: 100 | Plant response rating, Chickweed [8, 13]: 60

Cc1nn(-c2ccc(C(F)(F)F)c(F)c2)nc1Oc1ccnc(C(F)(F)F)c1 [Compound 148]
Plant response rating: Chickweed [8, 9]: 70 | Plant response rating: Chickweed [8, 10]: 80 | Plant response rating: Chickweed [8, 11]: 90 | Plant response rating, Chickweed [8, 13]: 60 | Plant response rating, Chickweed [8, 17]: 25 | Plant response rating, Chickweed [8, 14]: 60 | Plant response rating, Chickweed [8, 15]: 70 | Plant response rating, Chickweed [8, 16]: 100

CCc1nn(-c2ccc(C(F)(F)F)cc2)nc1Cc1ccnc(C(F)(F)F)c1 [Compound 155]
Plant response rating: Chickweed [8, 9]: 70 | Plant response rating: Chickweed [8, 10]: 75 | Plant response rating: Chickweed [8, 11]: 100 | Plant response rating, Chickweed [8, 13]: 65 | Plant response rating, Chickweed [8, 17]: 35 | Plant response rating, Chickweed [8, 14]: 50 | Plant response rating, Chickweed [8, 15]: 100 | Plant response rating, Chickweed [8, 16]: 100

Cc1nn(-c2ccc(F)c(C(F)(F)F)c2)nc1Cc1ccnc(C(F)(F)F)c1 [Compound 156]
Plant response rating: Chickweed [8, 9]: 75 | Plant response rating: Chickweed [8, 10]: 90 | Plant response rating: Chickweed [8, 11]: 95 | Plant response rating, Chickweed [8, 13]: 60 | Plant response rating, Chickweed [8, 17]: 50 | Plant response rating, Chickweed [8, 14]: 100 | Plant response rating, Chickweed [8, 15]: 100 | Plant response rating, Chickweed [8, 16]: 100

CCOc1nn(-c2ccc(F)cc2)nc1Cc1ccnc(C(F)(F)F)c1 [Compound 196, 4-[[5-ethoxy-2-(4-fluorophenyl)-2H-1,2,3-triazol-4-yl]methyl]-2-(trifluoromethyl)pyridine]
Plant response rating: Chickweed [8, 9]: 85 | Plant response rating: Chickweed [8, 10]: 95 | Plant response rating: Chickweed [8, 11]: 100 | Plant response rating, Chickweed [8, 13]: 70 | Plant response rating, Chickweed [8, 17]: 50 | Plant response rating, Chickweed [8, 14]: 65 | Plant response rating, Chickweed [8, 15]: 100 | Plant response rating, Chickweed [8, 16]: 100
